Patent US20040147006A1, “Peptides that bind to DNA and inhibit DNA replication, and methods of use” (priority 2001, published 2004)
Entries after “also recorded” stand apart in the source; their conditions may differ. Read-outs that look alike come from different tables or passages of the source.

What was measured:
[1] = biological target: T1, T-ag oligomerization on 64-bp oligonucleotide containing the SV40 core origin (Simian virus 40, UniProt P03070); type: biochemical; settings: T-ag 6 pmol; for Effect on T-ag oligomerization, mutant set (FIG. 11 Panel B): 64-bp SV40 core origin, peptide concentration not given; for Effect on T-ag oligomerization (hexamer and double hexamer formation): peptide final concentration 1 mM (20 nmoles)
T1 construct: made in house
Description: (§1) Electrophoretic mobility shift assays (EMSA). Double stranded oligonucleotides, ^32P labeled at 5′ termini, were prepared using standard procedures (Sambrook, J., et al., 1989, Cold Spring Harbor Laboratory, Cold Spring Harbor, N.Y.; Sreekumar, K. A., et al., 2000, p. 49-67; In, L. Raptis (ed.), Methods in Molecular Biology; SV40 Protocols; Humana Press; Totowa, N.J.). EMSA rections were conducted using conditions for SV40 in vitro replication (Wobbe, C. R., et al., 1985, Proc. Natl. Acad. Sci. USA 82:5710-571 4). The reactions (20 μl) contained 7 mM MgCl2, 0.5 mM DTT, 4 mM AMP-PNP, 40 mM creatine phosphate (pH 7.6), 0.48 μg of creatine phosphate kinase, 5 μg of bovine serum albumin, 0.8 μg of Hae III-digested pBR322 ([…]; used as a nonspecific competitor), about 25 fmol of double stranded oligonucleotide, T-ag and the indicated amounts of peptide. After a 20-min incubation at 37° C., glutaraldehyde (0.1 % final concentration) was added and the reaction products were further incubated for 5 min. The reactions were stopped by the addition of 5 μl of 6× loading dye II (15% Ficoll, 0.25% bromophenol blue, and 0.25% xylene cyanol; Sambrook, J., et al., 1989, Cold Spring Harbor Laboratory, Cold Spring Harbor, N.Y.) to the reaction mixtures. Samples containing T-ag were applied to 3.5 to 12% gradient polyacrylamide gels and electrophoresed in 0.5% Tris-borate-EDTA (TBE) pH 8.4 for about 1.5 h (10 watts).

[2] = tested on: 64 bp enhancer control (SEQ ID NO: 29); test: Peptide band shift (EMSA without T-ag), control oligonucleotide; type: binding; settings: 64 bp enhancer control oligonucleotide
Description: as §1
Peptide based band shift reactions were identical to those described above except that T-ag was omitted from the reactions and the final glutaraldehyde concentration was reduced to 0.05 %. Moreover, the samples were loaded on 8% polyacryamide gels and electrophoresed in 0.5% TBE pH 8.4 for about 3h (about 200 volts). The gels were dried on Whatman 3 MM paper, subjected to autoradiography and quantitated using a Molecular Dynamics PhosphorImager (Sunnyvale, Calif.).

[3] = tested on: 64 bp SV40 core origin (SEQ ID NO: 24); test: Peptide band shift (EMSA without T-ag), core origin; type: binding; settings: for Peptide/DNA complex formation in peptide band shift: SV40 core origin, 13-mer set at 1 mM final concentration (20 nmoles); for DNA binding seen in EMSA without cross-linking: absence of cross-linking with glutaraldehyde
Description: as §1
[…] Moreover, the samples were loaded on 8% polyacryamide gels and electrophoresed in 0.5% TBE pH 8.4 for about 3h (about 200 volts). The gels were dried on Whatman 3 MM paper, subjected to autoradiography and quantitated using a Molecular Dynamics PhosphorImager (Sunnyvale, Calif.).

[4] = biological target: T2, T-ag helicase ATPase (Simian virus 40, UniProt P03070); type: biochemical, SV40; settings: duplicate lanes, FIG. 13
T2 construct: made in house
Description: A method for measuring ATP hydrolysis involves incubating T-ag with a ^32P-labeled ATP, cross-linking with gluteraldehyde, removing unincorporated nucleotides by passing the reaction products over a Bio-Spin P-30 column, drying the eluate in a Speedvac, resuspending the samples in formic acid, and performing thin layer chromatography on PEI (polyethyleneimine) plates. Using autoradiography, the amount of ATP, ADP and AMP associated with T-ag was determined.

[5] = tested on: double stranded oligonucleotide containing the SV40 core origin (SEQ ID NO: 24); test: Nitrocellulose filter binding of peptide to DNA
Description: Nitrocellulose filter binding reactions. Assay for the ability of NLS based peptides to bind to DNA were performed using published methods (Sreekumar, K. A., et al., 2000, In, L. Raptis (ed.), Methods in Molecular Biology: SV40 Protocols; Humana Press, Totowa, N.J. p. 49-67). Reactions (20 μl) contained 7 mM MgCl2, 0.5 mM DTT, 4 mM AMP-PNP, 40 mM creatine phosphate (di-Tris salt pH7.7), 0.48 μg of creatine phosphokinase, 0.2 mg of bovine serum albumin per ml, 0.8 μg of Hae III-digested pBR322 DNA, about 25 fmol of a given oligonucleotide (about 10^6 cpm/pmol) and the indicated peptide. After incubation for 20 min at 37° C., the mixtures were filtered under suction through alkali-treated nitrocellulose filters (Millipore type HAWP; pore size, 0.4 μm; stored in 100 mM Tris-HCl, pH7.5). The filters were then washed with 5 ml of 100 mM Tris-HCl, pH 7.5, and were dried and counted in a Beckman LS 3801 scintillation counter.

[6] = tested on: double-stranded DNA; test: Binding of NLS peptides to double-stranded DNA
Description: (§2) In the examples that follow, peptides were designed and synthesized to contain NLS regions from a variety of viral and human proteins, in particular, T-ag of SV40, and each of the proteins encoded by the human tumor suppressor p53 gene (SEQ ID NO: 1), the E1 protein encoded by bovine papillomavirus (SEQ ID NO: 2), and a set of control peptides. Binding assays of these peptides were performed with a 64 bp oligonucleotide derived from the SV40 core origin (SEQ ID NO: 24). […] Single stranded DNA was bound poorly by p53 and E1 NLS region peptides.

[7] = tested on: single-stranded DNA; test: Binding of NLS peptides to single-stranded DNA
Description: as §2

[8] = tested on: SV40 DNA replication in HeLa human cell crude extracts; test: SV40 in vitro replication reaction; type: biochemical; parameters: Amount of peptide that completely blocks replication: unit not given here; settings: for Inhibition of SV40 in vitro DNA replication: 30 μl reactions, with T-ag
Description: DNA replication reactions. SV40 in vitro replication reactions were conducted as described by Wobbe et al 1985, Proc. Natl. Acad. Sci. USA 82:5710-5714 (see also, Bullock, P. A., et al., 1998, p. 223-243. In S. Cotterill (ed.), Eukaryotic DNA Replication; A practical Approach, Oxford University Press, Oxford). Reaction mixtures (30 μl) contained 7 mM MgCl2, 0.5 mM DTT, 4 mM ATP, 40 mM creatine phosphate (di-Tris salt pH7.7), 1.4 μg of creatine phosphokinase, 12.5 μg/ml pSV01ΔEP, dATP, dGTP, and dTTP (100 μM each), CTP, GTP, and UTP (200 μM each), [α-^32p] dCTP (20 μM, about 5 cpm/fmol) and the indicated peptides.

T1 sequence (P03070 whole entry): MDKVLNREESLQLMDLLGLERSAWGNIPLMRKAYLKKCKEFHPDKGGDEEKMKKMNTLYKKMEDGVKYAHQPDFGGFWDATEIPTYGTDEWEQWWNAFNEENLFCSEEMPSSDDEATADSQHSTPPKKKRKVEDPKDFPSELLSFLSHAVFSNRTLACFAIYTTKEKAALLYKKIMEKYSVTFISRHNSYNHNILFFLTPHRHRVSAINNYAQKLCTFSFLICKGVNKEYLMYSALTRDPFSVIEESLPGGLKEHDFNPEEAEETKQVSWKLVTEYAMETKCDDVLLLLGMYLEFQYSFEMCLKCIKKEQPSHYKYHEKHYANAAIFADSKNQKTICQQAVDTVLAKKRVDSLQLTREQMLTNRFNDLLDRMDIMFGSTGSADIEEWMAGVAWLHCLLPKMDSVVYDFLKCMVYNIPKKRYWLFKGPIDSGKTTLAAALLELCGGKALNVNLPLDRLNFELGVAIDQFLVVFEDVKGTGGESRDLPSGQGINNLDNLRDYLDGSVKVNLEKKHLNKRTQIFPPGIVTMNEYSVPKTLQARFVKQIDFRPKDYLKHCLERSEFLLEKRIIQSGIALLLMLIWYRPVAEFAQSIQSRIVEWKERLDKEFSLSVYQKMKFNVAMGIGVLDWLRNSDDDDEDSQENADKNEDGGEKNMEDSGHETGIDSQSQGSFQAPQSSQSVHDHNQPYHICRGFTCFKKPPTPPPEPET
T2 sequence (P03070 whole entry): as above

## ADSQHSTPPKKKR (Virus; Host Macaca mulatta; DOMAIN (1)..(13) Domain of SV40 T-Antigen Protein (118)...(130)) [peptide 213, 13-mer of SV40 T-ag centered on Thr124]
[1]; listed as SEQ ID NO: 3
  Effect on T-ag oligomerization, mutant set (FIG. 11 Panel B): complete inhibition of oligomerization
[1]; listed as peptide T-213
  Effect on T-ag oligomerization, mutant set (FIG. 11 Panel B): inhibited T-ag oligomerization
  Effect on T-ag oligomerization (hexamer and double hexamer formation): formation of the standard hexamer and double hexamer protein was inhibited
[1]; peptide final concentration 0.5 mM
  Effect on T-ag oligomerization: inhibited T-ag assembly events
[1]
  Effect on T-ag oligomerization (hexamer and double hexamer formation): inhibited both hexamer and double hexamer formation
[2]
  Peptide/DNA complex formation in peptide band shift: bound to the 64 bp enhancer control
[2]; listed as peptide T-213
  Peptide/DNA complex formation in peptide band shift: able to bind to the 64-bp enhancer control
[3]
  Peptide/DNA complex formation in peptide band shift: found to bind to DNA
[3]; listed as T-213
  Peptide/DNA complex formation in peptide band shift: Mobility shifts are seen
[3]; listed as peptide T-213
  Peptide/DNA complex formation in peptide band shift: binds to DNA
[4]
  Effect on ATPase of T-ag: inhibited the ATPase of T-ag
[5]; high peptide concentrations (1 mM and 2 mM)
  Binding to DNA in filter binding assay: saturation of binding was observed
[5]; peptide 0.5 mM
  Binding to DNA in filter binding assay: bound relatively poorly
[5]; peptide 0.5 mM to 2 mM, replication conditions, pBR322 competitor
  Binding to DNA in filter binding assay: binds to DNA
[5]; peptide 0.5 mM to 2 mM, replication conditions, pBR322 competitor, listed as peptide T-213
  Binding to DNA in filter binding assay: able to bind to DNA

## KRKVLGSSQNSSGSEASETPVKRRK [BP-E125]
[6]
  Binding to double-stranded DNA: bind to double-stranded DNA
[3]; listed as SEQ ID NO: 2
  DNA binding seen in EMSA without cross-linking: does not require cross-linking with glutaraldehyde
[3]; listed as peptide E1-225
  DNA binding seen in EMSA without cross-linking: successful EMSA experiments
[7]
  Binding to single-stranded DNA: bound poorly
[4]
  Effect on ATPase of T-ag: blocked the degradation of ATP by T-ag
[8]
  Concentration of peptide that completely blocked viral DNA replication: about 600 μM
  Inhibition of SV40 in vitro DNA replication: at all concentrations tested inhibited; also recorded: inhibits in vitro DNA replication reactions
[8]; listed as SEQ ID NO: 2
  Inhibition of SV40 in vitro DNA replication: best inhibitor of DNA replication
[8]; added to a reaction
  Amount of peptide that completely blocks replication: 20
[5]; low peptide concentration 0.25 mM
  Binding to DNA in filter binding assay, E1 peptides: better DNA binder than peptide 217
[5]; low peptide concentration 0.25 mM, listed as peptide E1-P225
  Binding to DNA in filter binding assay, E1 peptides: binds at a relatively low concentration of peptide
[5]; peptide 0.25 mM and 0.5 mM
  Binding to DNA in filter binding assay, E1 peptides: binds to DNA at a lower concentration than does peptide 217
[5]; peptide 0.25 mM and 0.5 mM, listed as BP-E1
  Binding to DNA in filter binding assay, E1 peptides: bound to DNA
[5]; peptide 0.25 mM and 0.5 mM, listed as SEQ ID NO: 2
  Binding to DNA in filter binding assay, E1 peptides: best DNA binder
[5]; peptide 0.25 mM and 0.5 mM, listed as peptide E1-P225
  Binding to DNA in filter binding assay, E1 peptides: found to bind to DNA

## TKRALPNNTSSSPQPKKKPL (DOMAIN (1)..(20) Domain of p53 (304)...(323); listed as Homo sapiens) [SEQ ID NO: 1, peptide from the NLS/Cdk region of human p53]
[6]
  Binding to double-stranded DNA: bind to double-stranded DNA; also recorded: binds to double-stranded
[7]
  Binding to single-stranded DNA: bound poorly; also recorded: not single-stranded DNA
